The values below come from paper PMC12586182 (Frontiers in Oncology, 2025).

Holding throughout (assay): Kinase panel profiling at 1 µmol/L (mobility shift assay, Carna)
Common to all, as to format: biochemical
Common to all, as to conditions: 1 µmol/L of BTK inhibitor

The target of assay [1] is T1, SPHK1 (Homo sapiens, UniProt Q9NYA1).
T1 construct: purchased Carna Biosciences

Assay [2] deals with T2, PKCδ (Homo sapiens, UniProt Q05655).
T2 construct: purchased Carna Biosciences

Assay [3] concerns the target T3, ITK (Homo sapiens, UniProt Q08881).
T3 construct: purchased Carna Biosciences
T3 sequence (Q08881 1-620): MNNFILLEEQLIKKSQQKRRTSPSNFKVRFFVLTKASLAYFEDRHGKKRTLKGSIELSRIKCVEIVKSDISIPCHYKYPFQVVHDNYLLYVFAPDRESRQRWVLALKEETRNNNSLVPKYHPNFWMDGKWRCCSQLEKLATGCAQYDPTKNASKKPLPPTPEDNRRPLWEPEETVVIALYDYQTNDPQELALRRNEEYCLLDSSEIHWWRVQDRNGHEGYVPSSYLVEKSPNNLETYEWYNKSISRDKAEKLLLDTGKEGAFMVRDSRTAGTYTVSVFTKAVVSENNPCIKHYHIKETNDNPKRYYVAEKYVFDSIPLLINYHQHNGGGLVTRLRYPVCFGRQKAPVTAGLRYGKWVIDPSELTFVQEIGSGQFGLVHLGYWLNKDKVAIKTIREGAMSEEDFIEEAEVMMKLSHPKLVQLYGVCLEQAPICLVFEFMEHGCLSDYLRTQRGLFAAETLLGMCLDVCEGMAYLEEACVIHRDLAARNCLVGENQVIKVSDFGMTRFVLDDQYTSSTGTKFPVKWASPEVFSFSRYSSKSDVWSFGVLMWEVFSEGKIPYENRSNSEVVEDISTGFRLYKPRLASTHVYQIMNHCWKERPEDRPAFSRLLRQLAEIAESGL

Assay [4] deals with T4, PRKX (Homo sapiens, UniProt P51817).
T4 construct: purchased Carna Biosciences
T4 sequence (P51817 1-358): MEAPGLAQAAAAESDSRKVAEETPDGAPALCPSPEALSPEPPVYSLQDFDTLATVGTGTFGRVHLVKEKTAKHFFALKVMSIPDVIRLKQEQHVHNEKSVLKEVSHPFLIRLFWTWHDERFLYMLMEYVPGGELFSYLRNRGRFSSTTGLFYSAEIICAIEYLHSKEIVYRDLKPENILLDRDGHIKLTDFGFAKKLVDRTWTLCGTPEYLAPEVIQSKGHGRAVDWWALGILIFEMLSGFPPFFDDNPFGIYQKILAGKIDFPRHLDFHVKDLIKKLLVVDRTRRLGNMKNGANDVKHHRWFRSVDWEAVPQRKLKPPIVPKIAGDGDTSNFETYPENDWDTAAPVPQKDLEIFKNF

Assay [5] addresses T5, SRPK1 (Homo sapiens, UniProt Q96SB4).
T5 construct: purchased Carna Biosciences

Assay [6] has as its target T6, PKCα (Homo sapiens, UniProt P17252).
T6 construct: purchased Carna Biosciences

Assay [7] concerns the target T7, CaMK2α (Homo sapiens, UniProt Q9UQM7).
T7 construct: purchased Carna Biosciences

Assay [8] concerns the target T8, PKCζ (Homo sapiens, UniProt Q05513).
T8 construct: purchased Carna Biosciences
T8 sequence (Q05513 1-592): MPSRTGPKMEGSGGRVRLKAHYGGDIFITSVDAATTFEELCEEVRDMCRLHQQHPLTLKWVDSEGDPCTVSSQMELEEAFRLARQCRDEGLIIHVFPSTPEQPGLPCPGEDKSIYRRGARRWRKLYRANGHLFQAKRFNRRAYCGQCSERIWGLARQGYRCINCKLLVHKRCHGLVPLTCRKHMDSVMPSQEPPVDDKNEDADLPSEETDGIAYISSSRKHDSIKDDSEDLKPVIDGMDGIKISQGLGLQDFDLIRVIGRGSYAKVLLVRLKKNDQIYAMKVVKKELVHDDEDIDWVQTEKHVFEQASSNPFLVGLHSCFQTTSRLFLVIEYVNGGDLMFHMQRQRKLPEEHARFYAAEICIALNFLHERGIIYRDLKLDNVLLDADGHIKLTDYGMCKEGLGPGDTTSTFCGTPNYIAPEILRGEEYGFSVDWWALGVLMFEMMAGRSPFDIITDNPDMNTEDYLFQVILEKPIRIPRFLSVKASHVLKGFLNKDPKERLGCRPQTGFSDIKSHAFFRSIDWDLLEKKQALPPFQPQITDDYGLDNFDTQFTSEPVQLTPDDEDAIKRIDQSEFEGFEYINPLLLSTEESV

Assay [9] concerns the target T9, RSK4 (Homo sapiens, UniProt Q9UK32).
T9 construct: purchased Carna Biosciences

In assay [10] the target is T10, EPHB4 (Homo sapiens, UniProt P54760).
T10 construct: purchased Carna Biosciences
T10 sequence (P54760 16-987): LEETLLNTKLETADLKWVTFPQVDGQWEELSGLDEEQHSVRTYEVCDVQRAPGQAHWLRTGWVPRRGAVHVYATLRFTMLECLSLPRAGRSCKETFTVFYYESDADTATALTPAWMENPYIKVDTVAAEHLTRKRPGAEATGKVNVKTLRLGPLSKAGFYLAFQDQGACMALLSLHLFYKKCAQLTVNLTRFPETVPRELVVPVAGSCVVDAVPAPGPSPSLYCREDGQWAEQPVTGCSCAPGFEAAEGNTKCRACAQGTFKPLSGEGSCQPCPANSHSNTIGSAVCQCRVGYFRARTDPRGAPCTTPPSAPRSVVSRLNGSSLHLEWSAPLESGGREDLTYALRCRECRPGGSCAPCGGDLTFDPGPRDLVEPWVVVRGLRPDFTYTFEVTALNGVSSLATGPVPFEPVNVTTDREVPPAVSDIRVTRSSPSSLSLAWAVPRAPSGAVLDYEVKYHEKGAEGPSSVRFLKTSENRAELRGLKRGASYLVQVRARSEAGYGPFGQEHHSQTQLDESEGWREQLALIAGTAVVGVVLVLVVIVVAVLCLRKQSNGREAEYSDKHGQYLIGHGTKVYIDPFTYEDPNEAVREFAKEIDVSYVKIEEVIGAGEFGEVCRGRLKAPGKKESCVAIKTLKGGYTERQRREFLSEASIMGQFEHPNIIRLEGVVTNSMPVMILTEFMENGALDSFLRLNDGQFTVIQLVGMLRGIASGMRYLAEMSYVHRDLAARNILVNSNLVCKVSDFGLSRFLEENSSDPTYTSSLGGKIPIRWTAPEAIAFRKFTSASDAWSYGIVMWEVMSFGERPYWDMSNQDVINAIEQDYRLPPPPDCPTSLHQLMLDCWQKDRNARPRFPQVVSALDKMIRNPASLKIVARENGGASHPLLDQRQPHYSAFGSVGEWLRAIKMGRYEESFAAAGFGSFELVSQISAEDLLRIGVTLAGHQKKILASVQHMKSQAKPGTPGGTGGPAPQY

T9 sequence (Q9UK32 whole entry): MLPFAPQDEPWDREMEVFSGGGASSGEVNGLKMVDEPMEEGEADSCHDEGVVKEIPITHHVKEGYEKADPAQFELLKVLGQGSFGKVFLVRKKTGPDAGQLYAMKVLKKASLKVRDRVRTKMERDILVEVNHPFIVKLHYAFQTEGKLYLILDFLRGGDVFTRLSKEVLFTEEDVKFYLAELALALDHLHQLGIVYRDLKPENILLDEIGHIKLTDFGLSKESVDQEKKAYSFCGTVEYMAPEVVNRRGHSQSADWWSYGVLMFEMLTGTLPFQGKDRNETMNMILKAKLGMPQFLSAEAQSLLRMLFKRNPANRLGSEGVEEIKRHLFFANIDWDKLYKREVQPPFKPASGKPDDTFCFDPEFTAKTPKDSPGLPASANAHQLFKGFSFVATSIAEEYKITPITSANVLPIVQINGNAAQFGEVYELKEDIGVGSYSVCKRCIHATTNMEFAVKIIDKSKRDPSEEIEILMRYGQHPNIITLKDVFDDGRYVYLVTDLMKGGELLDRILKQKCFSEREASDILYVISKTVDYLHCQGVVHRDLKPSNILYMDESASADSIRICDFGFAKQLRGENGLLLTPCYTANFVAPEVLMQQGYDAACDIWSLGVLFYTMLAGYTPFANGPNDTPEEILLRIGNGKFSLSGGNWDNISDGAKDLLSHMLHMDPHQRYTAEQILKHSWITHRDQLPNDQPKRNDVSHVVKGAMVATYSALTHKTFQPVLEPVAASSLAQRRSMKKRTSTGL
T7 sequence (Q9UQM7 whole entry): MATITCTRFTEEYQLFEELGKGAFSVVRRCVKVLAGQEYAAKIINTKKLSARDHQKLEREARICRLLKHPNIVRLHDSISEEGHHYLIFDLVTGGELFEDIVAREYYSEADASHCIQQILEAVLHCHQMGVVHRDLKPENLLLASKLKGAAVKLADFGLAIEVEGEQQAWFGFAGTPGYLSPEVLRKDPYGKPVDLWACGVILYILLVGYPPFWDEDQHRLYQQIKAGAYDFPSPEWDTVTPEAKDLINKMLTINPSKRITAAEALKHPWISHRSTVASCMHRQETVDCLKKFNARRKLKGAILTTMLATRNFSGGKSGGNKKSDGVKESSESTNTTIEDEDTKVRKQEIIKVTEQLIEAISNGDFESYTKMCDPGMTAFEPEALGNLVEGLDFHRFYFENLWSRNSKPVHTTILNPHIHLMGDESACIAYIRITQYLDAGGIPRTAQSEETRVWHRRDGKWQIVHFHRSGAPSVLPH
T2 sequence (Q05655 whole entry): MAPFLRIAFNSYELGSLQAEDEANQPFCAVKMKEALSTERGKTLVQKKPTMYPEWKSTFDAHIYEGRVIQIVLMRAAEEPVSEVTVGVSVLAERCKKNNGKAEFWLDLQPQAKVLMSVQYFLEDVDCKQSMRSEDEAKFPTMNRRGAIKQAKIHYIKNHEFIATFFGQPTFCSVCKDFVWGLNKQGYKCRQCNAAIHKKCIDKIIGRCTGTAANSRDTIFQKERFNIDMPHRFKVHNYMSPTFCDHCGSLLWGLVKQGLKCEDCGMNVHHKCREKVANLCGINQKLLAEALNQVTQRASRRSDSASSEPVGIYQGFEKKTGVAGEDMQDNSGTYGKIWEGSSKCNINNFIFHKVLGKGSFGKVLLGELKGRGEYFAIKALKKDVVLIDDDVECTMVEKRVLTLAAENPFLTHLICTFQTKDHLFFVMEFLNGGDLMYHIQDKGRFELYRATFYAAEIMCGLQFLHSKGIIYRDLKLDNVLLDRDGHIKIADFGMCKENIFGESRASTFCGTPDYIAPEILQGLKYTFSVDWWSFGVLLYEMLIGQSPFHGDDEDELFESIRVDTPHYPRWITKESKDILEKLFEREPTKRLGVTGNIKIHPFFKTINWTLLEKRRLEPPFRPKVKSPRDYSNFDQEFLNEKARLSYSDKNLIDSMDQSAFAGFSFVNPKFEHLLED
T5 sequence (Q96SB4 whole entry): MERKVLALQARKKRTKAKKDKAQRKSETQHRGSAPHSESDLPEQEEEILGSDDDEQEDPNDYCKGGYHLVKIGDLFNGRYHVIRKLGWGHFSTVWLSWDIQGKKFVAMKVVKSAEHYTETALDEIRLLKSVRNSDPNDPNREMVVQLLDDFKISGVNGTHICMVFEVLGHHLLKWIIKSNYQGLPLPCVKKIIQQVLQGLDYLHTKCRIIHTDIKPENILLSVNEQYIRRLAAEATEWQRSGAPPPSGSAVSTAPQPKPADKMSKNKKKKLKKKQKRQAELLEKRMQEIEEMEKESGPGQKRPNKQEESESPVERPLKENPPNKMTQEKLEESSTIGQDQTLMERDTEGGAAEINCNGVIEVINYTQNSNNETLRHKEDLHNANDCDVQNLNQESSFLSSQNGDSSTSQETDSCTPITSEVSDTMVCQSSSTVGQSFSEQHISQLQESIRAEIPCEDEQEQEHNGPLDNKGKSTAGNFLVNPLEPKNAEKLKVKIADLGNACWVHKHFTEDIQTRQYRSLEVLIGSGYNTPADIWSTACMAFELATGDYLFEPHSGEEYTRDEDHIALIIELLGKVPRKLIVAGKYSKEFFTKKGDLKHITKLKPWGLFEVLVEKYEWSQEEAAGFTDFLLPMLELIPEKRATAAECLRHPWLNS
T1 sequence (Q9NYA1 whole entry): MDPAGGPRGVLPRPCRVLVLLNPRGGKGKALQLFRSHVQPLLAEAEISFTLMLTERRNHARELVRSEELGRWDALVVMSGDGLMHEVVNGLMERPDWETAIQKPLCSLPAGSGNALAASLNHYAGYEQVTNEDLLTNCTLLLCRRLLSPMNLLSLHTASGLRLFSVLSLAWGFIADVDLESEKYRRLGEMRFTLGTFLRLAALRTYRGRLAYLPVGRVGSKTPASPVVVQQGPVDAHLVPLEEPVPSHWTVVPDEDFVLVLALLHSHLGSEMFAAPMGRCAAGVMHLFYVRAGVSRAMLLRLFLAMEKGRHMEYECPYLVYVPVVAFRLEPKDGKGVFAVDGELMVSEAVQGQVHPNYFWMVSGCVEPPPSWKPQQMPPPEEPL

Take `CC#CC(=O)N1CCC[C@H]1c1nc(-c2ccc(C(=O)Nc3ccccn3)cc2)c2c(N)nccn12` [acalabrutinib]: the “Percentage inhibition of kinase enzyme activity” value (“Percentage inhibition” for short) is on record as -3.15% in assay [1]; -8.64% in assay [2]; 0.87% in [3]; -4.59% in assay [4]; -4.73% in assay [5]; -16.89% in [6]. Moreover, the “Percentage inhibition” value in assay [7] is given as -3.43%; in assay [8], -5.44%; in assay [9], 4.21%; in assay [10] it was -1.45%.
Consider `C=CC(=O)N1CCC[C@@H](n2nc(-c3ccc(Oc4ccccc4)cc3)c3c(N)ncnc32)C1` [ibrutinib], for which the “Percentage inhibition” value in assay [1] was -3.38%; in assay [2], 0.52%; in assay [3], 93.10%; in assay [4], 0.66%; in assay [5] it was 1.20%; in assay [6] it was 0.74%. The “Percentage inhibition” value in assay [7] was -1.35%; in [8] it was 10.28%; in assay [9] it was 5.52%; in assay [10], 26.52%.
Take `O=C(c1ccc(Oc2ccccc2)cc1Cl)c1c[nH]c2ncnc(N[C@@H]3CC[C@@H](CO)OC3)c12` [nemtabrutinib]: the “Percentage inhibition” value is reported as -5.57% in assay [1]; 6.96% in assay [2]; 8.66% in assay [3]; 1.65% in [4]; 6.73% in assay [5]; -0.64% in assay [6]. Besides, the “Percentage inhibition” value in [7] is recorded as 2.91%; in assay [8], -0.78%; in assay [9], -2.32%; in [10], 37.75%.
For the compound `COc1ccc(F)cc1C(=O)NCc1ccc(-c2nn([C@@H](C)C(F)(F)F)c(N)c2C(N)=O)cc1` [pirtobrutinib], the “Percentage inhibition” value was -10.15% in [1]; -3.98% in [2]; 0.65% in assay [3]; 9.51% in assay [4]; 8.97% in assay [5]; 11.69% in [6]. The “Percentage inhibition” value is reported as -0.99% in assay [7], -3.38% in assay [8], -0.12% in assay [9] and 4.51% in [10].
For the compound `C=CC(=O)N1CCC([C@@H]2CCNc3c(C(N)=O)c(-c4ccc(Oc5ccccc5)cc4)nn32)CC1` [zanubrutinib], the “Percentage inhibition” value in assay [3] was -2.98%; in assay [10], 12.92%.
